Results as given in patent publication US20050119314A1, “Pharmaceutical composition comprising an ACAT inhibitor and an insulin resistance reducing agent” (SANKYO COMPANY, LIMITED, priority 2002, published 2005).

Test system: apolipoprotein E-deficient mice
Assay: Determination of areas of pathological changes appearing in the aorta (atherosclerotic lesions and macrophage area in the aortic valve)
Type: in vivo
Details: male apolipoprotein E-deficient mice, compounds mixed with diet (Compound A 0.03 w/w %, Compound B 0.0001 w/w %) for 12 weeks, average ± standard error; for Rate of area occupied with macrophage: anti-MOMA-2 positive area relative to lesion area
Source text: Determination of Areas of Pathological Changes Appearing in the Aorta
Male apolipoprotein E-deficient mice of 12 weeks of age were divided into 4 groups (10 mice per a group) as follows: control group, group treated with 5-[4-(6-methoxy-1-methylbenzimidazol-2-yl-methoxy)benzyl]thiazolidine-2,4-dione hydrochloride (mixed with diet at a concentration of 0.0001 w/w %, hereinafter referred to as Compound B), group treated with N-(1-octyl-5-carboxymethyl-4,6-dimethylindolin-7-yl)-2,2-dimethylpropanamide hemisulfate (mixed with diet at a concentration of 0.03 w/w %, hereinafter referred to as Compound A), and co-administration group of Compound B (mixed with diet at a concentration of 0.0001 w/w %) and Compound A (mixed with diet at a concentration of 0.03 w/w %). All mice were treated with compounds mixed with diet except the control group for 12 successive weeks. The mice were autopsied in the 12th week and the area of atherosclerotic lesions in the aortic valve and the ratio of the area occupied by macrophages in the same area (positively stained area with anti-MOMA-2) were determined.
(1) Areas of Atherosclerotic Lesions in the Aorta
The aortic valve was stained with elastic-Masson and the area of atherosclerotic lesions in the aortic valve determined. Less-stained areas indicate greater inhibitory effects of the agents on the atherosclerotic lesions as well as suppressive action of the agents against progressive development of atherosclerotic lesions in the aorta.
(2) Rate of Area Occupied by Macrophages
Macrophages in the aortic valve were detected by staining with anti-MOMA-2. Areas occupied by macrophages in the aortic valve were determined and the ratio of the area occupied by macrophages (positively stained areas with anti-MOMA-2) to the area of atherosclerotic lesions in the aortic valve was calculated.
Macrophages are a factor to make plaques unstable. Thus decreases in macrophage accumulation increase plaque stability and are related to amelioration of the atherosclerotic lesions.
The actual measurement value in Table 1 indicates average ± standard error.

Compound: COc1ccc2nc(COc3ccc(CC4SC(=O)NC4=O)cc3)n(C)c2c1.Cl (stereo not drawn) [Compound B, 5-[4-(6-methoxy-1-methylbenzimidazol-2-yl-methoxy)benzyl]thiazolidine-2,4-dione hydrochloride]
- Rate of area occupied with macrophage: 23.3 ± 4.1%
- Area of atherosclerotic lesions (elastic-Masson stain): 80616 ± 11611 μm^2

Compound: N-(1-octyl-5-carboxymethyl-4,6-dimethylindolin-7-yl)-2,2-dimethylpropanamide hemisulfate [Compound A]
- Rate of area occupied with macrophage: 13.7 ± 2.2%
